*: point of attachment. CH2Cl = ClC*
Tested on: lung tumor lesion in C57Bl/6 mice treated with NMU
Assay: Murine model of lung carcinoma induced by intratracheal NMU; tumor lesion area/total lung area
Type: in vivo, mouse
Conditions: C57Bl/6 mice exposed to NMU, caspase-1 inhibitor i.p.; *p<0.05, **p<0.01; FIG. 6C
Protocol: Murine Model of Lung Carcinoma.
C57Bl/6 mice (Harlan Laboratories, Italy) and 129Sv mice, and caspase-1 and 11 knockout mice (Charles River Laboratories, Italy) (females of 6-8 weeks) were subjected to intratracheal (i.t.) instillation of a carcinogen, N-nitroso-N-methyl-urea (NMU), having alkylating and mutagenic activities (Damiani et al., 2008). NMU was administered three times every 7 days, according to the following administration schedule and dosage: day 0, 50 μg/mouse; day 8, 10 μg/mouse and day 15, 10 μg/mouse (FIG. 1). In some experiments, an anti-IL-1α antibody (Ab) (2 μg/[…] i.p.; eBioscience, USA), or a caspase-1 inhibitor (Ac-Y-VAD-cmk: 10 ug/mouse i.p., Sigma Aldrich, USA), or an anti-caspase-11 antibody (10 ug/mouse, i.p.; Santa Cruz, USA) were administered to C57Bl/6 mice treated with NMU. The animals were sacrificed at different time points (3-7-30 days from the first NMU administration), according to the scheme shown in FIG. 1. The tumor lesion was expressed as the tumor lesion area/total lung area ratio. […]
The results are expressed as mean±SEM. The differences between the various groups were statistically analyzed using One Way ANOVA analysis and/or Student's t test, as appropriate. […]

Question: Which “tumor lesion, effect in words” value does the source give for “Ac-Tyr-Val-Ala-Asp-CHO (Ac-YVAD-aldehyde) [y-VAD-CHO, N. sc-3069]” here?
Answer: reduced

Question: With “Ac-Tyr-Val-Ala-Asp-Chloromethylketone (Ac-YVAD-CH2Cl) [Ac-Y-VAD-cmk, N. SML-0429]” as the substance, how does the “tumor lesion, effect in words” value read?
Answer: reduced
